Results taken from the Deep4Chem optical property database.
One block for each compound: values may come before it.

Experiment: photoluminescence quantum yield (fraction); solvent given as SMILES

photoluminescence quantum yield (in ClCCl): 0.72
SMILES: COCCOCCOCCOCC(COCCOCCOCCOC)Oc1cc(/C=C/c2ccc(/C=C(\C#N)c3ccccc3)cc2)c(OC(COCCOCCOCCOC)COCCOCCOCCOC)cc1/C=C/c1ccc(/C=C(\C#N)c2ccccc2)cc1

SMILES: c1ccc(-c2cc(-c3ccccc3)cc(-c3ccc4c(c3)C3(c5cc(-c6cc(-c7ccccc7)cc(-c7ccccc7)c6)ccc5-4)c4ccccc4-c4c3c3c5ccccc5ccc3c3ccccc43)c2)cc1
photoluminescence quantum yield (in Cc1ccccc1): 0.59

photoluminescence quantum yield (in CCO): 0.005
SMILES: CC1(C)CC(/C=C/c2ccc(-n3c4ccccc4c4ccccc43)cc2)=CC(=C(C#N)C#N)C1

photoluminescence quantum yield (in CO): 0.13
SMILES: N#Cc1ccc(N/N=C/c2ccc3ccccc3c2O)cc1

photoluminescence quantum yield (in ClCCl): 0.02
SMILES: c1ccc2c(c1)c1ccccc1c1ccccc21

photoluminescence quantum yield (in CO): 0.84
SMILES: C#CCOc1ccc(/C=C/C2=[N+]3C(=C(c4ccc(N(C)CC)cc4)c4c(C)cc(C)n4[B-]3(F)F)C(C)=C2)cc1

photoluminescence quantum yield (in ClCCl): 0.178
SMILES: CCCCCCOc1cc(N(CC)CC)ccc1/C=C/C(=C(C#N)C#N)c1ccc(N(c2ccccc2)c2ccccc2)cc1

SMILES: CC1=CC(c2ccc3cc(N(C)C)ccc3c2)=[O+][B-](F)(F)O1
photoluminescence quantum yield (in C1CCOC1): 0.91
photoluminescence quantum yield (in CC#N): 0.14
photoluminescence quantum yield (in CC(C)=O): 0.53
photoluminescence quantum yield (in CS(C)=O): 0.22
photoluminescence quantum yield (in Cc1ccccc1): 0.93
photoluminescence quantum yield (in ClC(Cl)Cl): 0.97
photoluminescence quantum yield (in ClCCl): 0.99

photoluminescence quantum yield (in ClC(Cl)Cl): 0.65
SMILES: Cc1cc(C)c(C2=C3C=CC(c4ccccc4O)=[N+]3[B-]3(c4ccccc4)Oc4ccccc4-c4ccc2n43)c(C)c1 (stereo unspecified)

photoluminescence quantum yield (in CS(C)=O): 0.12
SMILES: CCCCN1/C(=C/C=C/C2=[N+](C)c3ccccc3C2(C)C)C(C)(C)c2cc(Br)ccc21

photoluminescence quantum yield (in CN(C)C=O): 0.5
SMILES: O=c1[nH]nc(-c2ccc(/C=C/c3ccc(-c4n[nH]c(=O)o4)cc3)cc2)o1

photoluminescence quantum yield (in ClCCl): 0.54
SMILES: c1ccc(C2=C(c3ccccc3)c3cccc4c3c(cc3nc5ccccc5nc34)O2)cc1

SMILES: CCC1(CC)c2cc(C=C(C#N)C#N)ccc2-c2ccc(N(C)C)cc21
photoluminescence quantum yield (in C1CCCCC1): 0.04
photoluminescence quantum yield (in CC#N): 0.26
photoluminescence quantum yield (in CCO): 0.18
photoluminescence quantum yield (in CCOCC): 0.39
photoluminescence quantum yield (in CS(C)=O): 0.24
photoluminescence quantum yield (in ClCCl): 0.62
photoluminescence quantum yield (in c1ccccc1): 0.22

photoluminescence quantum yield (in C1CCCCC1): 0.0049
photoluminescence quantum yield (in C1CCOC1): 0.0074
photoluminescence quantum yield (in C1COCCO1): 0.0035
photoluminescence quantum yield (in CC#N): 0.0013
photoluminescence quantum yield (in CCOC(C)=O): 0.0032
photoluminescence quantum yield (in CN(C)C=O): 0.0013
SMILES: Cc1cccc(Nc2ccccc2C(=O)O)c1C

photoluminescence quantum yield (in CC#N): 0.38
SMILES: O=C(O)c1ccc(-c2nc(-c3ccccc3)c3c4ccccc4ccn23)cc1

photoluminescence quantum yield (in ClC(Cl)Cl): 0.18
SMILES: CCCCCCN1C(=O)c2cccc3c(-c4ccc(Cl)s4)ccc(c23)C1=O

photoluminescence quantum yield (in CCCO): 0.017
SMILES: CCOC(=O)c1ccc2c(c1)[nH]c1c3ccc(C(=O)OCC)cc3[se]c21

photoluminescence quantum yield (in CC#N): 0.014
SMILES: C[C@@]12SC(Cl)=CC1=c1nc(-c3ccccc3)[nH]c1=C1C=C(Cl)S[C@]12C

photoluminescence quantum yield (in ClC(Cl)Cl): 0.18
SMILES: COc1ccc(N(c2ccc(OC)cc2)c2ccc(-c3ccc(-c4ccc(-c5ccc(-c6ccc(N(c7ccc(OC)cc7)c7ccc(OC)cc7)cc6)s5)c5nsnc45)s3)cc2)cc1

SMILES: Cc1cc(C)c(C2=C3C=c4c(c5ccc(C(C)(C)C)cc5c5cc(C(C)(C)C)ccc45)=[N+]3[B-](F)(F)n3c2cc2c4ccc(C(C)(C)C)cc4c4cc(C(C)(C)C)ccc4c23)c(C)c1
photoluminescence quantum yield (in C1CCCCC1): 0.3
photoluminescence quantum yield (in C1CCOC1): 0.25
photoluminescence quantum yield (in CC#N): 0.24
photoluminescence quantum yield (in Cc1ccccc1): 0.29
photoluminescence quantum yield (in ClCCl): 0.25

SMILES: CCCCCCCCc1ccc(-n2c3c(c4c2c2c(n4-c4ccc(CCCCCCCC)cc4)-c4ccccc4NB2c2ccccc2)B(c2ccccc2)Nc2ccccc2-3)cc1
photoluminescence quantum yield (in Cc1ccccc1): 0.7

photoluminescence quantum yield (in C1CCOC1): 0.52
SMILES: COc1cc2c(cc1-c1ccc(F)cc1)Cc1c3c(c4c(c1-2)-c1cc(OC)c(-c2ccc(F)cc2)cc1C4)C(=O)N(CCC(C)C)C3=O

photoluminescence quantum yield (in C1CCCCC1): 0.012
photoluminescence quantum yield (in CC#N): 0.008
SMILES: CN(C)c1ccc(/C=C/c2nc3c(ccc4ccccc43)s2)cc1

photoluminescence quantum yield (in ClCCl): 0.85
SMILES: O=P1(c2ccccc2)C(c2ccc(N(c3ccccc3)c3ccccc3)cc2)=Cc2cc3ccccc3cc21 (stereo unspecified)
